Values belong to the compound of their own block, whether it stands above or below them.
Tests used:
Format in all cases: cell-based, murine
[1] = target: T1, BaF3-TEL-TIE1 (Homo sapiens, UniProt P35590); assay: Antiproliferative activity, kinase-dependent Ba/F3 cells (MTT/MTS); conditions: 48 hours, cell viability, read-out: tel-TIE1 IC50
T1 construct: fused on or other part: P41212 (Transcription factor ETV6)
Experimental: (§1) Following up on the kinome data, the ability of compounds disclosed in the present invention to inhibit proliferation of cells that are dependent on selected protein kinases was tested. […] In addition, compounds were assayed to measure their capacity to inhibit TIE1, LYN, EML4-ALK, INSR and HCK kinases.
(§2) The murine cell line used is the BaF/3 cell line transformed with BCR/ABL cDNA (BaF/3-p210) or BCR/ABL-T315I mutant (Ba/F3-p210-T315I). These cells are maintained in RPMI/10% fetal calf serum (RPMI/FCS) supplemented with penicillin 50 μg/mL, streptomycin 50 μg/mL and L-glutamine […]. Untransformed BaF/3 cells (Wt-BaF/3) are similarly maintained with the addition of 15% of WEHI conditioned medium as a source of IL3.
(§3) Cells were seeded at a density of 20,000 cells/well into 96-well plates.
(§4) The background control wells to which media with no cells added and the vehicle control wells were included on each plate in triplicate. Cell viability was determined using MTT (Sigma, St. Louis, Mo., USA) and MTS (Promega, Madison, Wis., USA), according to the manufacturer's instructions. Results were analyzed using GraphPad Prism 5.0 (GraphPad Software, San Diego, Calif.) and IC50 values were calculated from cell viability dose-response curves and defined as the concentration of compound needed to reduce cell viability to 50% of a vehicle control (DMSO) (Table 3).
(§5) Cell proliferation assays of compounds of the invention against TIE1, LYN, EML4-ALK, INSR and Hck were conducted using identical methods as described above for BCR/ABL, except that BaF3-TEL-TIE1, BaF3-TEL-LYN, BaF3-EML4-ALK, BaF3-TEL-INSR, and BaF3-TEL-HCK are used instead of BaF3-BCR/ABL (Table 3 and 4).

[2] = target: T2, BaF3-TEL-LYN (Homo sapiens, UniProt P07948); assay: as above; conditions: 48 hours, cell viability, read-out: tel-LYN IC50
T2 construct: fused on or other part: P41212 (Transcription factor ETV6)
T2 sequence (P07948 whole entry, change not shown, the tested form may be a part): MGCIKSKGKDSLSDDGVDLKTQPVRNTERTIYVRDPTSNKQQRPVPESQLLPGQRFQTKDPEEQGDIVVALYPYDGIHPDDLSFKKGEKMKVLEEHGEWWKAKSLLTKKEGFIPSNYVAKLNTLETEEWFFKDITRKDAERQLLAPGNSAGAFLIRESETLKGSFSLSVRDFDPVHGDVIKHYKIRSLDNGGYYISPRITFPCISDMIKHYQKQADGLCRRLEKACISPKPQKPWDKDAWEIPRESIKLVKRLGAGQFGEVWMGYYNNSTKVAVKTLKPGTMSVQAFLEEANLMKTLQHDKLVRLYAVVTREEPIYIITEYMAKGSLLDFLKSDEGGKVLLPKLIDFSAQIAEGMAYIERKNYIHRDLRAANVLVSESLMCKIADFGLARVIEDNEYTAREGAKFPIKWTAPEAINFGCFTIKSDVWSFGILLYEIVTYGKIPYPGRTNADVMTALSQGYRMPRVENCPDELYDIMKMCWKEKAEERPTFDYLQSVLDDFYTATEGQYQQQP
Experimental: as §1, §2, §3, §4, §5

[3] = target: T3, BaF3-EML4-ALK (Homo sapiens, UniProt Q9UM73); assay: as above; conditions: 48 hours, cell viability, read-out: EML4-ALK IC50
T3 construct: fused on or other part: Q9HC35 (Echinoderm microtubule-associated protein-like 4)
T3 sequence (Q9UM73 whole entry, change not shown, the tested form may be a part): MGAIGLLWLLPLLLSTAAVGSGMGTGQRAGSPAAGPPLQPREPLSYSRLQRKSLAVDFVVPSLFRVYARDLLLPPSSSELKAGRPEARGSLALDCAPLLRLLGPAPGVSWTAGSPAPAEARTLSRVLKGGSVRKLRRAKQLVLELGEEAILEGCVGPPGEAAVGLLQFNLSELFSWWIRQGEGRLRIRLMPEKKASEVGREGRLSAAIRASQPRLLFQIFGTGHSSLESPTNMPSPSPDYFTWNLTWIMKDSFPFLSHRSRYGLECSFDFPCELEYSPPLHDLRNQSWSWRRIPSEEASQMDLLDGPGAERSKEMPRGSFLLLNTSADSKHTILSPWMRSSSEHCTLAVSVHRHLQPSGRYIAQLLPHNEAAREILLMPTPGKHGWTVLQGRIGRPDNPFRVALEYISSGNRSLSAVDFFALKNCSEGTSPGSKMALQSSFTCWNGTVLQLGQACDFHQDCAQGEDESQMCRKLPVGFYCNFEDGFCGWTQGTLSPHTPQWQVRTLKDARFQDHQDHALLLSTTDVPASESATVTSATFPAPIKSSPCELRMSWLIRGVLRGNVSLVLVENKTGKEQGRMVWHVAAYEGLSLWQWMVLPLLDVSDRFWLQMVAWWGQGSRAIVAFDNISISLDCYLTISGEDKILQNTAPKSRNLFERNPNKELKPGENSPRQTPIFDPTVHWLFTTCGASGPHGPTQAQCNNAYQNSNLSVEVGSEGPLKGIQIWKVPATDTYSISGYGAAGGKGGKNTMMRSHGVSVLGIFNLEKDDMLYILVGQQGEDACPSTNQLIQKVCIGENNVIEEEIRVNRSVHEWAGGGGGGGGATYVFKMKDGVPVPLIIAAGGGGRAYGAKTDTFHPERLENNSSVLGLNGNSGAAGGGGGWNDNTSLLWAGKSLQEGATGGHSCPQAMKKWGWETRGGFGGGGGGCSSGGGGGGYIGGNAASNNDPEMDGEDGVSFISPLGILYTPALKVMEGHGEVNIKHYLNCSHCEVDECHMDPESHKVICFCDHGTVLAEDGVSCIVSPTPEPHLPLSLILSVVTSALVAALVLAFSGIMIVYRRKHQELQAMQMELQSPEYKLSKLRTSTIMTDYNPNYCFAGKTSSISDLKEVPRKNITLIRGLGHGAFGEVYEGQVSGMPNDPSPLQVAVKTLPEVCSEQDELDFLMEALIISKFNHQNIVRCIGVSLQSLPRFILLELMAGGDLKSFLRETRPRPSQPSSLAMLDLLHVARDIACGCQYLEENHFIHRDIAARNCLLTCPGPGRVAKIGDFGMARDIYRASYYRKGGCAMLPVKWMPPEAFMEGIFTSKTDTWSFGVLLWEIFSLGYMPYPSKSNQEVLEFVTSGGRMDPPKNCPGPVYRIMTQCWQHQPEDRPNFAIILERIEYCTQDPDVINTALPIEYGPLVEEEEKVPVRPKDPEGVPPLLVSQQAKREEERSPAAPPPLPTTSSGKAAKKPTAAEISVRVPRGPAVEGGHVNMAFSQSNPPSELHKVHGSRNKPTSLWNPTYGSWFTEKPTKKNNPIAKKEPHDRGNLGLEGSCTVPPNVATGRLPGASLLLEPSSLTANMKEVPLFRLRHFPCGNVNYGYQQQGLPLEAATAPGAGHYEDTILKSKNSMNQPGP
Experimental: as §1, §2, §3, §4, §5

[4] = target: T4, BaF3-BCR/ABL-T315I (Homo sapiens, UniProt P00519, T315I, cells depend on it); assay: as above; conditions: 48 hours, cell viability, read-out: BCR/ABL T315I IC50
T4 construct: fused on or other part: P11274 (Breakpoint cluster region protein)
Experimental: as §1, §2, §3, §4

[5] = target: T5, BaF3-BCR/ABL (Homo sapiens, UniProt P00519); assay: as above; conditions: 48 hours, cell viability, read-out: BCR/ABL IC50
T5 construct: fused on or other part: P11274 (Breakpoint cluster region protein)
Experimental: as §1, §2, §3, §4

[6] = tested on: Wt-BaF3; assay: Parental Ba/F3 cell proliferation (CellTiter Glo); conditions: Mus musculus, parental BaF/3 cells, 48 hours
Experimental: as §2
(§6) The BaF/3 cell line transformed with oncogenic NRAS or KRAS (BaF/3-NRASD12 or BaF/3-KRASD12) and the parental BaF/3 cells were used to measure the abilities of compounds of the invention to suppress RAS transformation (Table 5). Cells were seeded at a density of 5000 cells/well into 96-well plates. […] The background control wells to which media with no cells added and the vehicle control wells were included on each plate in triplicate. Cell viability was determined using CellTiter Glo Assay (Promega) according to manufacture's instruction with a minor modification of diluting 1 part CellTiter Glo reagent to 4 parts phosphate buffered saline (PBS) before use. The luminescence value was read out by an Envision (PerkinElmer).

[7] = tested on: BaF3-KRASD12; assay: Oncogenic RAS dependent cell proliferation (CellTiter Glo); conditions: Mus musculus, BaF3-KRASD12 cells, 48 hours, read-out: KRas-BaF3 IC50
Experimental: as §6

[8] = tested on: BaF3-NRASD12; assay: as above; conditions: Mus musculus, BaF3-NRASD12 cells, 48 hours, read-out: NRas-BaF3 IC50
Experimental: as §6

T1 sequence (P35590 whole entry, change not shown, the tested form may be a part): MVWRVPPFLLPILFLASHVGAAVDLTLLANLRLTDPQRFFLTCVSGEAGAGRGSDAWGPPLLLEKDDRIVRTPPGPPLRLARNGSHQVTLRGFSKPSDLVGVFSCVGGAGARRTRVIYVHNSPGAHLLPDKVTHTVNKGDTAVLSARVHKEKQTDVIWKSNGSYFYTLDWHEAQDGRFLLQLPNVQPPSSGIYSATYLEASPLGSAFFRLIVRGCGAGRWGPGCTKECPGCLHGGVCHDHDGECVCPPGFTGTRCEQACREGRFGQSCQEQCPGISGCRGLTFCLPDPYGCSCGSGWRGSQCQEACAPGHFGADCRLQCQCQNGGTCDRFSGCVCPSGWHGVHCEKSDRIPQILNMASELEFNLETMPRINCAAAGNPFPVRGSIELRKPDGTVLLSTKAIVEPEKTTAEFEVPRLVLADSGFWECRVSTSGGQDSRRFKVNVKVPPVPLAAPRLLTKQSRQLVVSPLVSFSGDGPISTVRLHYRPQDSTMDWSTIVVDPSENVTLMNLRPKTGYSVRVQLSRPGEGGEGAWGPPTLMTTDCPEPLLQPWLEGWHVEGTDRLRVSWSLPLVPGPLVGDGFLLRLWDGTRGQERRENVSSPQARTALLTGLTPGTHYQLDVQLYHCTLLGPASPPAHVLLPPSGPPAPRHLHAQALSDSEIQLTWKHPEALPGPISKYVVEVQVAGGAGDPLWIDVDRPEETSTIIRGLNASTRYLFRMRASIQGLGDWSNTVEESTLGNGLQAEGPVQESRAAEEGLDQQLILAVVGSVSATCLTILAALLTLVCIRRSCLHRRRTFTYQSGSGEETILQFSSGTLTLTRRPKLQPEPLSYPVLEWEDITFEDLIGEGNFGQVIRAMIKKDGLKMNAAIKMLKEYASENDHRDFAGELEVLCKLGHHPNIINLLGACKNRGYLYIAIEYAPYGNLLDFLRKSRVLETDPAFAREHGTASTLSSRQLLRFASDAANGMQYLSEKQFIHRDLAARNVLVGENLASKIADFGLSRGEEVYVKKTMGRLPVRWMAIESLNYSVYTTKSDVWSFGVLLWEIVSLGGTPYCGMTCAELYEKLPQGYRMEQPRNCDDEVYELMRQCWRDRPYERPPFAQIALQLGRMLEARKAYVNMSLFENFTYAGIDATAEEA

Compound: CN1CN(c2cccc(C(F)(F)F)c2)Cc2cnc(Nc3ccc(N4CCOCC4)nc3)nc21 [ID-5, 8-methyl-N-(6-morpholinopyridin-3-yl)-6-(3-(trifluoromethyl)phenyl)-5,6,7,8-tetrahydropyrimido[4,5-d]pyrimidin-2-amine]
GI50 [1]: 6.17 µM | GI50 [2]: 15 µM | GI50 [3]: > 10 µM | GI50 [4]: > 10 µM

IC50 [7]: 10.3 µM | IC50 [8]: 8.15 µM
Compound: COc1ccc(NC(=O)c2cccc(C(F)(F)F)c2)cc1N1Cc2cnc(Nc3ccc(C)nc3)nc2N(C)C1 [IC-6, N-(4-methoxy-3-(1-methyl-7-((6-methylpyridin-3-yl)amino)-1,4-dihydropyrimido[4,5-d]pyrimidin-3(2H)-yl)phenyl)-3-(trifluoromethyl)benzamide]
GI50 [1]: 5.18 µM | GI50 [2]: ~8.23 µM | GI50 [3]: ~9.03 µM | GI50 [5]: 0.387 µM | GI50 [4]: 8 µM | IC50 [6]: 22.8 µM

IC50 [7]: > 10 µM | IC50 [8]: > 10 µM
Compound: Cc1ccc(Nc2ncc3c(n2)N(C)CN(c2cc(C(=O)NCCN4CCOCC4)ccc2C)C3)cn1 [IC-3, 4-methyl-3-(1-methyl-7-((6-methylpyridin-3-yl)amino)-1,4-dihydropyrimido[4,5-d]pyrimidin-3(2H)-yl)-N-(2-morpholinoethyl)benzamide]
GI50 [1]: > 10 µM | GI50 [2]: > 10 µM | GI50 [3]: > 10 µM | GI50 [5]: 0.217 µM | GI50 [4]: > 10 µM | IC50 [6]: > 10 µM

Compound: Cc1ccc(N)cc1N1Cc2cnc(Nc3ccc(N4CCOCC4)nc3)nc2N(C)C1 [ID-6, 6-(5-amino-2-methylphenyl)-8-methyl-N-(6-morpholinopyridin-3-yl)-5,6,7,8-tetrahydropyrimido[4,5-d]pyrimidin-2-amine]
GI50 [1]: 0.809 µM | GI50 [2]: 2.31 µM | GI50 [3]: > 10 µM | GI50 [5]: 0.353 µM | GI50 [4]: > 10 µM

IC50 [7]: 3.44 µM | IC50 [8]: 3.29 µM
Compound: Cc1ccc(NC(=O)c2cccc(C(F)(F)F)c2)cc1N1Cc2cnc(NCCN3CCOCC3)nc2N(C)C1 [IA-5, N-(4-methyl-3-(1-methyl-7-((2-morpholinoethyl)amino)-1,4-dihydropyrimido[4,5-d]pyrimidin-3(2H)-yl)phenyl)-3-(trifluoromethyl)benzamide]
GI50 [1]: 3.24 µM | GI50 [2]: 2.14 µM | GI50 [3]: 4.05 µM | GI50 [5]: 1.72 µM | GI50 [4]: 2.92 µM | IC50 [6]: 6.3 µM

IC50 [7]: > 10 µM | IC50 [8]: > 10 µM
Compound: Cc1ccc(Nc2ncc3c(n2)N(C)CN(c2cc(C(=O)NCCO)ccc2C)C3)cn1 [IC-2, N-(2-hydroxyethyl)-4-methyl-3-(1-methyl-7-((6-methylpyridin-3-yl)amino)-1,4-dihydropyrimido[4,5-d]pyrimidin-3(2H)-yl)benzamide]
GI50 [1]: > 10 µM | GI50 [2]: > 10 µM | GI50 [3]: > 10 µM | GI50 [5]: 6.36 µM | GI50 [4]: > 10 µM | IC50 [6]: > 10 µM

IC50 [7]: 1.46 µM | IC50 [8]: 1.53 µM
Compound: Cc1ccc(NC(=O)c2cccc(C(F)(F)F)c2)cc1N1Cc2cnc(Nc3ccc(N4CCN(C)CC4)nc3)nc2N(C)C1 [IA-14, N-(4-methyl-3-(1-methyl-7-((6-(4-methylpiperazin-1-yl)pyridin-3-yl)amino)-1,4-dihydropyrimido[4,5-d]pyrimidin-3(2H)-yl)phenyl)-3-(trifluoromethyl)benzamide]
IC50 [6]: 3.67 µM

Compound: Cc1ccc(Nc2ncc3c(n2)N(C)CN(c2cc(NC(=O)c4cccc(C(F)(F)F)c4)ccc2Cl)C3)cn1 [IC-7, N-(4-chloro-3-(1-methyl-7-((6-methylpyridin-3-yl)amino)-1,4-dihydropyrimido[4,5-d]pyrimidin-3(2H)-yl)phenyl)-3-(trifluoromethyl)benzamide]
GI50 [1]: 6.85 µM | GI50 [2]: 5.34 µM | GI50 [3]: 9.73 µM | GI50 [5]: 9 µM | GI50 [4]: > 10 µM

IC50 [7]: 7.57 µM | IC50 [8]: 5.21 µM
Compound: Cc1ccc(NC(=O)c2cccc(C(F)(F)F)c2)cc1N1Cc2cnc(N[C@@H](C)CO)nc2N(C)C1 [IA-8, (S)—N-(3-(7-((1-hydroxypropan-2-yl)amino)-1-methyl-1,4-dihydropyrimido[4,5-d]pyrimidin-3(2H)-yl)-4-methylphenyl)-3-(trifluoromethyl)benzamide]
GI50 [1]: 3.65 µM | GI50 [2]: 2.5 µM | GI50 [3]: 9.22 µM | GI50 [5]: 1.94 µM | GI50 [4]: > 10 µM | IC50 [6]: 17.9 µM

Compound: CN1CN(c2ccc(Cl)c(C(F)(F)F)c2)Cc2cnc(Nc3ccc(N4CCOCC4)nc3)nc21 [ID-1, 6-(4-chloro-3-(trifluoromethyl)phenyl)-8-methyl-N-(6-morpholinopyridin-3-yl)-5,6,7,8-tetrahydropyrimido[4,5-d]pyrimidin-2-amine]
GI50 [1]: > 10 µM | GI50 [2]: > 10 µM | GI50 [3]: > 10 µM | GI50 [4]: > 10 µM

IC50 [7]: > 10 µM | IC50 [8]: > 10 µM
Compound: Cc1ccc(Nc2ncc3c(n2)N(C)CN(c2cccc(NC(=O)c4cccc(C(F)(F)F)c4)c2)C3)cn1 [IC-5, N-(3-(1-methyl-7-((6-methylpyridin-3-yl)amino)-1,4-dihydropyrimido[4,5-d]pyrimidin-3(2H)-yl)phenyl)-3-(trifluoromethyl)benzamide]
GI50 [1]: 9.29 µM | GI50 [2]: > 10 µM | GI50 [3]: > 10 µM | GI50 [5]: 0.94 µM | GI50 [4]: > 10 µM | IC50 [6]: 29.3 µM

IC50 [7]: 6.47 µM | IC50 [8]: 11.5 µM
Compound: CNc1ncc2c(n1)N(C)CN(c1cc(NC(=O)c3cccc(C(F)(F)F)c3)ccc1C)C2 [IA-3, N-(4-methyl-3-(1-methyl-7-(methylamino)-1,4-dihydropyrimido[4,5-d]pyrimidin-3(2H)-yl)phenyl)-3-(trifluoromethyl)benzamide]
GI50 [1]: 5.47 µM | GI50 [2]: 4.09 µM | GI50 [3]: 6.34 µM | GI50 [5]: 1.04 µM | GI50 [4]: > 10 µM | IC50 [6]: 12.5 µM

Compound: Cc1ccc(C(F)(F)F)cc1N1Cc2cnc(Nc3ccc(N4CCOCC4)nc3)nc2N(C)C1 [ID-4, 8-methyl-6-(2-methyl-5-(trifluoromethyl)phenyl)-N-(6-morpholinopyridin-3-yl)-5,6,7,8-tetrahydropyrimido[4,5-d]pyrimidin-2-amine]
GI50 [1]: 4.43 µM | GI50 [2]: 4.29 µM | GI50 [3]: 8.24 µM | GI50 [5]: 1.63 µM | GI50 [4]: > 10 µM

IC50 [7]: 10.1 µM | IC50 [8]: 5.22 µM
Compound: Cc1ccc(NC(=O)c2cccc(C(F)(F)F)c2)cc1N1Cc2cnc(NC3CCN(C)CC3)nc2N(C)C1 [IA-1, N-(4-methyl-3-(1-methyl-7-((1-methylpiperidin-4-yl)amino)-1,4-dihydropyrimido[4,5-d]pyrimidin-3(2H)-yl)phenyl)-3-(trifluoromethyl)benzamide]
GI50 [1]: 1.75 µM | GI50 [2]: ~2.79 µM | GI50 [3]: 1.53 µM | GI50 [5]: 4.28 µM | GI50 [4]: 4.15 µM | IC50 [6]: 8.83 µM

Compound: CN1CN(c2ccc(F)c(Cl)c2)Cc2cnc(Nc3ccc(N4CCOCC4)nc3)nc21 [ID-2, 6-(3-chloro-4-fluorophenyl)-8-methyl-N-(6-morpholinopyridin-3-yl)-5,6,7,8-tetrahydropyrimido[4,5-d]pyrimidin-2-amine]
GI50 [1]: 11.8 µM | GI50 [2]: 20.5 µM | GI50 [3]: > 10 µM | GI50 [5]: > 10 µM | GI50 [4]: > 10 µM

Compound: CN1CN(c2ccc(Br)cc2F)Cc2cnc(Nc3ccc(N4CCOCC4)nc3)nc21 [ID-3, 6-(4-bromo-2-fluorophenyl)-8-methyl-N-(6-morpholinopyridin-3-yl)-5,6,7,8-tetrahydropyrimido[4,5-d]pyrimidin-2-amine]
GI50 [1]: 4.55 µM | GI50 [2]: 7.27 µM | GI50 [3]: 20 µM | GI50 [5]: > 10 µM | GI50 [4]: > 10 µM

Source: US10364247B2, “Preparation and use of novel protein kinase inhibitors” (Ruijin Hospital Affiliated to Shanghai Jiao Tong University …, priority 2015, dated 2019)
